What was measured:
Assay type in all cases: cell-based
rat aortic VSMC [1] = assay: Resazurin conversion assay of PDGF-induced VSMC proliferation; settings: for IC50 / activity at 30 µM: PDGF-BB 20 ng/mL; for IC50: concentrations 1, 3, 10, 30 µM, read-out: Inhibition of VSMC Proliferation, Resazurin Conversion Assay, IC50; for activity at 30 µM: 30 µM compound, residual proliferation relative to PDGF + 0.1% DMSO control = 1.00, means ± SD, n = 3, read-out: Inhibition of VSMC Proliferation, Resazurin Conversion Assay, at 30 µM (Relative to Solvent vehicle = 1.00, RU); for Anti-proliferative activity in rat aortic VSMC (in words): summary rating of the 14 xanthones
Protocol: With the aim to identify novel natural product inhibitors of VSMC proliferation, we tested several natural products (not shown) from our in-house compound collection on their ability to inhibit proliferation of rat aortic VSMC induced by the platelet-derived growth factor (PDGF), which is a mitogen strongly associated with aberrant proliferation in restenosis and leads to excessive proliferation of VSMC. After stimulation of the VSMC for 48 h with PDGF, the total number of metabolically active cells was measured by resazurin conversion. In this way, the xanthone gentisin (1,7-dihydroxy-3-methoxyxanthone (1)), previously isolated from the root material of G. lutea, a well-known medicinal bitter plant from the Gentianaceae family, was identified as a novel inhibitor of VSMC proliferation. […] Although an anti-proliferative effect of a prenylated xanthone has been described earlier, it represents a novel activity for simple, nonprenylated xanthones.
(§1) Rat aortic VSMC were acquired from Lonza and grown in Dulbecco’s modified essential medium (DMEM)–F12 (1:1) supplemented with 20% fetal calf serum (FCS) and gentamycin. For all experiments, cells were seeded in 96-well plates (5 × 10^3 cells/well) and incubated for 24 h. Subsequently, cells were serum-starved for another 24 h to make them quiescent.
Quiescent VSMC were pre-treated with the studied test compounds, G. lutea root extract, or vehicle (0.1% DMSO) for 30 min and then stimulated with PDGF-BB (20 ng/mL) for 48 h. The number of metabolically active VSMC was measured by resazurin conversion. Therefore, after washing the cells with phosphate-buffered saline (PBS), they were incubated in serum-free medium containing resazurin (10 µg/mL) for 2 h. Measurement of total metabolic activity was performed by monitoring the increase in fluorescence at 590 nm using an excitation wavelength of 535 nm in a 96-well plate reader (Tecan GENios Pro, Grödig, Austria). The assay was validated using the VSMC proliferation inhibitor taxol (IC50 = 0.1 µM [21]).

rat aortic VSMC [2] = assay: BrdU incorporation assay (DNA synthesis) in PDGF-stimulated VSMC; settings: PDGF-BB 20 ng/mL, BrdU added after 2 h, read after 22 h, read-out: Inhibition of VSMC Proliferation, BrdU Assay, IC50
Protocol: In this assay, the DNA synthesis in dividing VSMC is measured by quantification of BrdU incorporation into newly synthesized DNA.
as §1
Quiescent VSMC were pre-treated with test compounds or vehicle (0.1% DMSO) for 30 min and then stimulated with PDGF-BB (20 ng/mL) for 2 h. Subsequently, BrdU was added to estimate de novo DNA synthesis in VSMC [29, 30]. After 22 h, the BrdU incorporation was determined according to the instructions of the manufacturer (Roche Diagnostics, Vienna, Austria).

rat aortic VSMC [3] = assay: Assessment of cytotoxicity by LDH release; settings: concentration range up to 30 µM; PDGF-BB 20 ng/mL, 24 h
Protocol: Loss of VSMC membrane integrity as a sign for cell death was quantified by measuring the release of the soluble cytosolic protein LDH.
as §1
Quiescent VSMC were pre-treated with test compounds, positive control (digitonin 100 µg/mL, corresponding to 81 µM), or vehicle (0.1% DMSO) for 30 min and then stimulated with PDGF-BB (20 ng/mL) for 24 h. Loss of cell membrane integrity as an indicator for cell death was quantified by measuring the release of LDH [31, 32]. Therefore, the LDH activity of the cell supernatant was determined. To estimate total LDH, identically treated samples were incubated in the presence of 1% Triton X-100 for 45 min. […] The enzyme reaction was stopped by oxymate (1.78 mg/mL) and the absorbance was read at 490 nm. The percentage of extracellular LDH enzyme activity was calculated to estimate potential effects of the samples on cell viability.

[4] = Rattus norvegicus, VSMC, 48 h, 48 h

SMILES: COc1cc(O)c2c(=O)c3cc(O)ccc3oc2c1 [Compound 1, 1,7-dihydroxy-3-methoxyxanthone]
- Inhibition of PDGF-induced VSMC proliferation at 30 µM (in words) (rat aortic VSMC [1]; 30 µM, 48 h, resazurin conversion): completely inhibited PDGF-induced proliferation to the basal level
- IC50 (rat aortic VSMC [1]; 48 h): 7.84 µM
- IC50 (rat aortic VSMC [1]; [4]): 7.8 µM
- activity at 30 µM (rat aortic VSMC [1]; Rattus norvegicus, VSMC, 48 h): 33.5 ± 17.5%
- Anti-proliferative activity in rat aortic VSMC (in words) (rat aortic VSMC [1]): most potent compound
- IC50 (rat aortic VSMC [2]): 5.74 µM
- Cytotoxicity (LDH release in the culture medium) (rat aortic VSMC [3]): not cytotoxic

SMILES: COc1ccc2oc3cc(O)cc(O)c3c(=O)c2c1 [Compound 2, 1,3-dihydroxy-7-methoxyxanthone]
- IC50 (rat aortic VSMC [1]; [4]): 27 µM
- activity at 30 µM (rat aortic VSMC [1]; Rattus norvegicus, VSMC, 48 h): 59.3 ± 8.4%
- Anti-proliferative activity in rat aortic VSMC (in words) (rat aortic VSMC [1]): moderately active

SMILES: COc1cc2oc3c(OC)cccc3c(=O)c2c(O)c1OC [Compound 3, 1-hydroxy-2,3,5-trimethoxyxanthone]
- activity at 30 µM (rat aortic VSMC [1]; Rattus norvegicus, VSMC, 48 h): 83.2 ± 10.4%
- Anti-proliferative activity in rat aortic VSMC (in words) (rat aortic VSMC [1]): weakly active or inactive

SMILES: COc1c(OC)c(O)c2c(=O)c3cccc(OC)c3oc2c1OC [Compound 4, 1-hydroxy-2,3,4,5-tetramethoxyxanthone]
- IC50 (rat aortic VSMC [1]; [4]): 11.2 µM
- activity at 30 µM (rat aortic VSMC [1]; Rattus norvegicus, VSMC, 48 h): 21.6 ± 5.8%
- Anti-proliferative activity in rat aortic VSMC (in words) (rat aortic VSMC [1]): potent inhibitory activity
- IC50 (rat aortic VSMC [2]): 24.5 µM
- Cytotoxicity (LDH release in the culture medium) (rat aortic VSMC [3]): not cytotoxic

SMILES: COc1ccc2oc3c(OC)c(OC)c(OC)c(O)c3c(=O)c2c1 [Compound 5, 1-hydroxy-2,3,4,7-tetramethoxyxanthone]
- activity at 30 µM (rat aortic VSMC [1]; Rattus norvegicus, VSMC, 48 h): 75.4 ± 1.4%
- Anti-proliferative activity in rat aortic VSMC (in words) (rat aortic VSMC [1]): weakly active or inactive

SMILES: COc1cc(O)c2c(=O)c3c(O)ccc(OC)c3oc2c1 [Compound 6, 1,8-dihydroxy-3,5-dimethoxyxanthone]
- IC50 (rat aortic VSMC [1]; [4]): 12.5 µM
- activity at 30 µM (rat aortic VSMC [1]; Rattus norvegicus, VSMC, 48 h): 51.4 ± 6.7%
- Anti-proliferative activity in rat aortic VSMC (in words) (rat aortic VSMC [1]): potent inhibitory activity
- IC50 (rat aortic VSMC [2]): 7.37 µM
- Cytotoxicity (LDH release in the culture medium) (rat aortic VSMC [3]): not cytotoxic

SMILES: COc1cc(O)c2c(=O)c3c(O)c(OC)ccc3oc2c1 [Compound 7, 1,8-dihydroxy-3,7-dimethoxyxanthone]
- IC50 (rat aortic VSMC [1]; [4]): 10.2 µM
- activity at 30 µM (rat aortic VSMC [1]; Rattus norvegicus, VSMC, 48 h): 0.2 ± 1.4%
- Anti-proliferative activity in rat aortic VSMC (in words) (rat aortic VSMC [1]): potent inhibitory activity
- IC50 (rat aortic VSMC [2]): 7.53 µM
- Cytotoxicity (LDH release in the culture medium) (rat aortic VSMC [3]): not cytotoxic

SMILES: COc1cc(O)c2c(=O)c3cccc(O)c3oc2c1 [Compound 8, 1,5-dihydroxy-3-methoxyxanthone]
- IC50 (rat aortic VSMC [1]; [4]): 29.5 µM
- activity at 30 µM (rat aortic VSMC [1]; Rattus norvegicus, VSMC, 48 h): 71.3 ± 6.1%
- Anti-proliferative activity in rat aortic VSMC (in words) (rat aortic VSMC [1]): moderately active

SMILES: COc1cc(O)c2c(=O)c3c(O)ccc(O)c3oc2c1 [Compound 9, 1,5,8-trihydroxy-3-methoxyxanthone]
- activity at 30 µM (rat aortic VSMC [1]; Rattus norvegicus, VSMC, 48 h): 78.3 ± 3.1%

SMILES: COc1cc(O)c2c(=O)c3ccc(O)c(OC)c3oc2c1 [Compound 10, 1,6-dihydroxy-3,5-dimethoxyxanthone]
- activity at 30 µM (rat aortic VSMC [1]; Rattus norvegicus, VSMC, 48 h): 98.7 ± 2.5%

SMILES: COc1c(O)cc2oc3c(OC)c(O)ccc3c(=O)c2c1O [Compound 11, 1,3,6-trihydroxy-2,5-dimethoxyxanthone]
- activity at 30 µM (rat aortic VSMC [1]; Rattus norvegicus, VSMC, 48 h): 94.2 ± 4.2%

SMILES: COc1cc(O)c2c(=O)c3c(OC)c(OC)c(O)c(OC)c3oc2c1 [Compound 12, 1,6-dihydroxy-3,5,7,8-tetramethoxyxanthone]
- activity at 30 µM (rat aortic VSMC [1]; Rattus norvegicus, VSMC, 48 h): 86.2 ± 6.8%

SMILES: COc1cc(O)c2c(=O)c3c(O)c(OC)c(O)c(OC)c3oc2c1 [Compound 13, 1,6,8-trihydroxy-3,5,7-trimethoxyxanthone]
- activity at 30 µM (rat aortic VSMC [1]; Rattus norvegicus, VSMC, 48 h): 84.6 ± 9.6%

SMILES: COc1c(O)cc2oc3c(O)cccc3c(=O)c2c1O [Compound 14, 1,3,5-trihydroxy-2-methoxyxanthone]
- activity at 30 µM (rat aortic VSMC [1]; Rattus norvegicus, VSMC, 48 h): 86.2 ± 10.4%
